The term EC50 denotes the concentration at which the effect is half-maximal.

The test system of experiment [1] is hP2Y2. Further details: method as in PMID 8564228. The conditions noted are these: endogenous agonists; cited from earlier work.
In experiment [2] the test system is panel of 37 other receptors. More on the design: method as in PMID 15231488. The conditions noted are these: 10 μM; cited from earlier work.
Experiment [3] has as its system human bronchial epithelial cells. Further details: method as in PMID 15231488. Particulars: ex vivo; cited from earlier work.
Experiment [4] deals with T1, hP2Y2R (Homo sapiens, UniProt P41231).
T1 construct: The 1321N1 cells expressing wild-type P2Y2R (P2Y2R-1321N1) were gifted by Dr. Elizabeth Rosethorne; expressed in transfected cells; host or cells: 1321N1 astrocytoma cells (P2Y2R-1321N1), gifted
Description: Calcium-mobilization assay in P2Y2-1321N1 cells (antagonism of UTPγS). It counts as cell-based.

Experiment [5] relates to hP2Y2. Further details: method as in PMID 28958619. The conditions noted are these: cited from earlier work.
In experiment [6] the target is T2, NLuc-P2Y2R (Homo sapiens, UniProt P41231).
T2 construct: expressed in transfected cells
Description: NanoBRET competition binding in NLuc-P2Y2 1321N1 cells. The conditions noted are these: Table 7, competition binding with fluorescent ligand 98, mean ± SEM. Background: Bioluminescence resonance energy transfer reports proximity on the nanometre scale.

Experiment [7] has as its target T2, NLuc-P2Y2R. Put plainly: NanoBRET saturation binding in NLuc-P2Y2R 1321N1 astrocytoma cells. Particulars: Table 6; saturation binding curves; 1321N1 cells expressing NLuc-P2Y2R; mean ± SEM; read-out: NanoBRET pKd (converted). The protocol:
To determine whether any of these conjugates had affinities for P2Y2R and consequently if they could be used in NanoBRET binding assays, a 1321N1 astrocytoma cell line expressing recombinant P2Y2R tagged on its N-terminus with NLuc (NLuc-P2Y2R) was generated. […] These NLuc-P2Y2 cells were treated with increasing concentrations of 66–69 and then treated with the NLuc substrate, furimazine, before the resulting BRET signal was monitored. […] However, this did illustrate the power of using NanoBRET to monitor ligand binding to low-affinity receptors.
Nucleophilic displacement of the 2-chloro substituent of 43 by either tert-butyl 3-aminopropanoate or tert-butyl 6-aminohexanoate gave the corresponding tert-butyl esters (70 and 71). […] The carboxylic acids were generated from the tert-butyl esters via TFA-mediated hydrolysis and subsequently coupled with tert-butyl (2-aminoethyl)carbamate or tert-butyl (2-(2-aminoethoxy)ethyl)carbamate to generate the corresponding amides (74–77). The Boc protecting groups were removed using TFA, and the resulting amines were coupled with the appropriate commercially available BODIPY succinimidyl ester (SE), generating a small library of 14 fluorescent conjugates (78–91). These fluorescent conjugates were initially tested using the aforementioned NanoBRET binding assay at fixed concentrations of 10 μM in the presence or absence of 10 μM 1 (see Figure S1 in the Supporting Information).
The saturation and competition binding assays were performed according to the methodology of Stoddart.[18] Briefly, the assays were performed on stably transfected NLucP2Y2-1321N1 cells that had been seeded 24 h prior to the experiment in white Thermo Scientific Matrix 96-well microplates. The medium in each well was removed and replaced with HBSS containing apyrase (1 U/mL) and the required concentration of the fluorescent ligand with or without the competing ligand. Upon the addition of the fluorescent ligand, the cells were incubated for 1 h at 37 °C without CO2. The NLuc substrate, furimazine (Promega), was then added to a final concentration of 10 μM, and the plate was incubated for a further 5 min at 37 °C without CO2. The luminescence and resulting BRET were measured using a PHERAstar FS plate reader (BMG Labtech) at room temperature. For the assays involving 97, sequential measurements of the filtered light emissions were made at 460 nm (80 nm bandpass) and >610 nm (long-pass), and the raw BRET ratios were calculated by dividing the >610 nm emissions by the 460 nm emissions. For the assays involving 98, the measurements were made at 475 nm (30 nm bandpass) and 535 nm (30 nm bandpass), and the raw BRET ratios were calculated by dividing the 535 nm emissions by the 475 nm emissions.
The total and nonspecific saturation binding curves were fitted simultaneously using eq 2: [drawing 7] 2 where Bmax is the maximum specific BRET signal, [b] is the nanomolar concentration of the fluorescent ligand, Kd is the equilibrium dissociation constant in nanomolar, M is the slope of the nonspecific-binding component, and C is the intercept with the Y-axis. The pKd is −logKd.

The target in experiment [8] is T1, hP2Y2R. Description: Confocal microscopy of fluorescent ligands on 1321N1 astrocytoma cells expressing hP2Y2R. The format is cell-based. Here is the method: The P2Y2R-1321N1 cells were grown to approximately 80% confluency on eight-well Labtek chambered cover glasses (Nunc Nalgene) in normal growth medium. The growth medium was removed and replaced with HBSS containing apyrase (1 U/mL) and either 1 (10 μM) or the vehicle, and the cells incubated for 30 min at 37 °C without CO2. The cells were then incubated with 97 or 98 at the required concentration for 10 min at room temperature prior to the collection of the single-equatorial confocal images. The images were obtained on a Zeiss LSM710 confocal microscope using a 40× c-Apochromat 1.2NA water-immersion objective. For 97, the images were collected using a 633 nm excitation wavelength and a 488/561/633 dichroic, and the emissions were collected through a 650LP filter. For 98, a 488 nm excitation wavelength was used with the same dichroic, and the emissions were collected using an LP575 filter. In each case, a pinhole diameter of 1 airy unit was used, and the laser power, gain, and offset were kept the same for all of the samples within each experiment. For both 97 and 98, the images presented are as representative of an individual experiment with matched conditions. Linear adjustments to the image brightness and contrast have been applied equally across all of the comparative images using Zen software in order to prepare the images for presentation.

The target in experiment [9] is T2, NLuc-P2Y2R. Put plainly: Calcium signal of NLuc-tagged P2Y2 receptors in 1321N1 cells. The format is cell-based. The conditions noted are these: n = 3, read-out: UTPγS EC50 (calcium signal). Here is the method:
To create the NLuc-P2Y2R constructs, human P2Y2R DNA (obtained from the Missouri S&T cDNA Resource Center) was amplified by PCR to remove the methionine start signal and cloned into pCR2.1 (linearized vector, Invitrogen). P2Y2R was then subcloned in-frame with the membrane-signal sequence of the 5HT3A receptor and the full-length sequence of nanoluciferase.
P2Y2-1321N1 cells seeded into black-sided 96-well view plates were incubated at 37 °C without CO2 for 45 min in a total volume of 100 μL of a HEPES-buffered saline solution (HBSS; 10 mM HEPES, 10 mM glucose, 145 mM NaCl, 5 mM KCl, 1 mM MgSO4, 2 mM sodium pyruvate, and 1.3 mM CaCl2) containing 2.5 mM probenecid, 2.3 μM Fluo 4AM, 0.023% pluronic acid, 0.5 mM Brilliant Black, 1 U/mL apyrase, and the ligand under investigation or the vehicle. The plates were then loaded onto a plate reader (FLEXstation, Molecular Devices), and the fluorescence was measured (excitation: 485 nm, emission: 525 nm) every 1.52 s for up to 200 s after the addition of UTPγS at 15 s. For the investigation of the BODIPYFL-labeled ligands, Fluo 4AM was replaced with 2.0 μM X-Rhod-1 AM (excitation: 584 nm, emission: 612 nm).

The mark [10] stands for this setting: Table 7, Gaddum equation, shift of agonist dose–response curve by a single antagonist concentration, mean ± SEM, read-out: pKb Ca2+ mobilization (converted).

Where two headings read alike, the source gives them in different places.

T2 sequence (P41231 2-377 limits assumed): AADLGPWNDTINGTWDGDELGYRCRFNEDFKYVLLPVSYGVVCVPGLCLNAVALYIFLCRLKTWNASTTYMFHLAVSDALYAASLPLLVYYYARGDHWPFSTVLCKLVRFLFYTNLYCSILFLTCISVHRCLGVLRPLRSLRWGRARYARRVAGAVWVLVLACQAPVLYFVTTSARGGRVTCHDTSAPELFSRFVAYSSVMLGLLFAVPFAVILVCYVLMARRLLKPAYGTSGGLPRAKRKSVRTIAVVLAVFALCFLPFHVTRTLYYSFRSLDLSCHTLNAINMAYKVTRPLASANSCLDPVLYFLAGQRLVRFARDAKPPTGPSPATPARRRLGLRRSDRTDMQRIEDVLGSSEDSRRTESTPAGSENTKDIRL
T1 sequence (P41231 whole entry): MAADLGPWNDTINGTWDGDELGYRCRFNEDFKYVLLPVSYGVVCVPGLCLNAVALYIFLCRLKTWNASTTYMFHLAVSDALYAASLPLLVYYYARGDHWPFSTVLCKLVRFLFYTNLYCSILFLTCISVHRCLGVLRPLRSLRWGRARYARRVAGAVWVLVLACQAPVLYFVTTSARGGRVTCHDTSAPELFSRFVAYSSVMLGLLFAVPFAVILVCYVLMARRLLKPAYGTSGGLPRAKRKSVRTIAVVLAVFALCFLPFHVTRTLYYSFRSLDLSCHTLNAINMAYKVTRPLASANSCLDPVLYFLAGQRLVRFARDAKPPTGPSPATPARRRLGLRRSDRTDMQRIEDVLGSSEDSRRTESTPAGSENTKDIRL

Regarding `Nc1ncnc2c1ncn2[C@@H]1O[C@H](COP(=O)(O)OP(=O)(O)OP(=O)(O)O)[C@@H](O)[C@H]1O` [ATP, adenosine-5′-triphosphate], the concentration for a half-maximal effect (EC50) in experiment [1] is 0.23 µM.
For the molecule `Cc1ccc2c(c1)C=Cc1cc(C)ccc1C2c1cn(Cc2ccc(C(=O)Nc3nnn[nH]3)o2)c(=O)[nH]c1=S` [Example 1], in [2], the “activity against a panel of 37 other receptors” value is “inactive”. Also, the “antagonism of ATPγS-induced mucin secretion” value in experiment [3] was “concentration-dependently antagonize”.
Consider `Cc1ccc2c(c1)C=Cc1cc(C)ccc1C2c1cn(Cc2nc(C(=O)O)cs2)c(=O)[nH]c1=S` [Example 2, 2-((5-(2,8-dimethyl-5H-dibenzo[a,d][7]annulen-5-yl)-2-oxo-4-thioxo-3,4-dihydropyrimidin-1(2H)-yl)methyl)thiazole-4-carboxylic acid], for which the Kb in experiment [4] (Table 1, Gaddum equation, shift of UTPγS concentration–response curve by a single antagonist concentration, mean ± SEM, read-out: hP2Y2 pKb (converted)) was 0.372 µM. In addition, the “pA2 (literature/reported value)” value in experiment [5] was “c The literature value is pA2 = 5.7.[8]”.
In the case of `Cc1ccc2c(c1)C=Cc1cc(C)ccc1C2c1cn(Cc2cc(C(=O)O)cc(C(=O)O)c2)c(=O)[nH]c1=S` [Example 60, 5-((5-(2,8-Dimethyl-5H-dibenzo[a,d][7]annulen-5-yl)-2-oxo-4-thioxo-3,4-dihydropyrimidin-1(2H)-yl)methyl)isophthalic Acid], in [4] (setting [10]), the Kb was 0.295 µM. In experiment [4] (quoted in text for nonfluorescent antagonists, mean ± SEM, read-out: hP2Y2R affinity pKd (converted)), the Kd is 0.295 µM. Besides, the Ki in experiment [6] (read-out: pKi NanoBRET (98) (converted)) was 0.145 µM.
On to `CC1=CC(C)=[N+]2C1=Cc1ccc(CCC(=O)NCCCCCC(=O)NCCNC(=O)CCNc3nc4c(s3)C=Cc3cc(Cl)ccc3C4c3cn(Cc4nc(C(=O)Nc5nnn[nH]5)cs4)c(=O)[nH]c3=S)n1[B-]2(F)F` (stereo not drawn) [Example 98, (E)-2-((5-(7-Chloro-2-((3-((2-(6-(3-(5,5-difluoro-7,9-dimethyl-5H-5λ^4,6λ^4-dipyrrolo[1,2-c:2′,1′-f][1,3,2]diazaborinin-3-yl)propanamido)hexanamido)ethyl)amino)-3-oxopropyl)amino)-4H-benzo[5,6]cyclohepta[1,2-d]thiazol-4-yl)-2-oxo-4-thioxo-3,4-dihydropyrimidin-1(2H)-yl)methyl)-N-(1H-tetrazol-5-yl)thiazole-4-carboxamide], for which the Kb in [4] (10 μM fluorescent ligand, rightward shift of agonist dose–response curve, hP2Y2R-1321N1 cells, read-out: pKb (converted)) was 1.35 µM. For the same molecule, the Kd in [7] was 0.479 µM. Moreover, the “membrane-specific fluorescence after pretreatment with 1” value in experiment [8] (100 nM fluorescent ligand plus 10 μM 1, 30 min at 37 °C) is on record as “substantially reduced”. Also, the “confocal imaging: fluorescence localisation” value in [8] (100 nM fluorescent ligand, 1321N1 astrocytoma cells expressing hP2Y2R) is “localized membrane fluorescence and very little intracellular fluorescence”.
Consider `O=c1[nH]c(=S)c(C2c3ccccc3CCc3ccccc32)cn1[C@@H]1O[C@H](COP(=O)([O-])OP(=O)([O-])C(Cl)(Cl)P(=O)([O-])[O-])[C@@H](O)[C@H]1O.[Na+].[Na+].[Na+].[Na+]` [Example 99, reference compound], for which the Kb in [4] (setting [10]) is 0.257 µM. For the same molecule, in experiment [5], the “pA2 (literature/reported value)” value was “d Reported pA2 = 8.0.[8]”.
As to `O=c1ccn([C@@H]2O[C@H](COP(=O)(O)OP(=O)(O)OP(=O)(O)O)[C@@H](O)[C@H]2O)c(=O)[nH]1` [UTP, uridine-5′-triphosphate], the EC50 in [1] was 0.14 µM.
In the case of `O=c1ccn([C@@H]2O[C@H](COP(=O)(O)OP(=O)(O)OP(O)(O)=S)[C@@H](O)[C@H]2O)c(=O)[nH]1` [UTPγS, uridine-5′-(γ-thio)-triphosphate, reference compound], the EC50 in experiment [4] (agonist, calcium mobilization, n = 25) was determined as 0.0079 µM; in [9], 0.091 ± 0.012 µM. Besides, the “pKi NanoBRET (98)” value in [6] is 5.46 ± 0.04 (6).
